The source of these data is patent US20240101570A1 (AMGEN INC., priority 2020, published 2024).

One test relates to HCT116 MTAP null cells. Description: HCT116 MTAP null cell proliferation / viability (CellTiter-Glo, 6 days). It counts as cell-based. The settings on record: HCT116-MTAP null, 144 h, HCT116 MTAP null cells, 6 days, CellTiter-Glo; read-out: HCT-116 MTAP null IC50. In a few lines: (§1)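 CellTiter-Glo luminescence, 6-day exposure, RPMI 1640 + 10% FBS. Dosing: 1:3 series (8-9 pts, top 1 or 10 μM) or 1:2 series (22 pts, top 10 or 50 μM), DMSO control. IC50 = 50% of control via curve fit.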
For orientation: ATP-based viability assays read luminescence as a measure of living cells.

Another test relates to HCT116 WT cells. Put plainly: HCT116 WT cell proliferation / viability (CellTiter-Glo, 6 days). The settings on record: Homo sapiens, HCT-116, 144 h, HCT116 WT cells, 6 days, CellTiter-Glo; read-out: HCT-116 WT IC50. The format is cell-based. The method, boiled down: as §1

Molecules are shown by their SMILES.

As to `Nc1nc2ccc(C(=O)N(Cc3ccc(OC(F)(F)F)cn3)CC3CC3)cc2c2c1COC2` [Example 663, 4-amino-N-(cyclopropylmethyl)-N-((5-(trifluoromethoxy)-2-pyridinyl)methyl)-1,3-dihydrofuro[3,4-c]quinoline-8-carboxamide], the IC50 worked out at 0.035 µM in the test on HCT116 MTAP null cells and 1.02 µM in the test with HCT116 WT cells.

As for `CC(C)N(Cc1ccc(C2CC2)nc1)C(=O)c1cc2c3c(c(N)nc2cn1)COC3` [Example 383, 4-amino-N-((6-cyclopropyl-3-pyridinyl)methyl)-N-(2-propanyl)-1,3-dihydrofuro[3,4-c][1,7]naphthyridine-8-carboxamide], the IC50 with HCT116 MTAP null cells was 1.31 µM; in the test with HCT116 WT cells, 43 µM.

Take `CCN(C(=O)c1ccc2nc(N)c3c(c2c1)COC3)[C@@H](c1ccc(C(F)(F)F)nn1)C1CC1` [Example 783, 4-amino-N-((R)-cyclopropyl(6-(trifluoromethyl)-3-pyridazinyl)methyl)-N-ethyl-1,3-dihydrofuro[3,4-c]quinoline-8-carboxamide]: the figures for the IC50 in the test with HCT116 MTAP null cells and in the test with HCT116 WT cells were 0.868 µM and 16.4 µM, respectively.

As to `CCN(Cc1ccc(C(F)(F)F)nc1)C(=O)c1ccc2nc(N)c3c(c2c1)COC3` [Example 703, 4-amino-N-ethyl-N-((6-(trifluoromethyl)-3-pyridinyl)methyl)-1,3-dihydrofuro[3,4-c]quinoline-8-carboxamide], the IC50 with HCT116 MTAP null cells was determined as 0.337 µM; in the test on HCT116 WT cells, 8.15 µM.

For the compound `Cn1cc(N(Cc2ccc(C(F)(F)F)cn2)C(=O)c2cc3c4c(c(N)nc3cn2)CCC4)cn1` [Example 492, 6-amino-N-(1-methyl-1H-pyrazol-4-yl)-N-((5-(trifluoromethyl)-2-pyridinyl)methyl)-8,9-dihydro-7H-cyclopenta[c][1,7]naphthyridine-2-carboxamide], the IC50 was 0.048 µM with HCT116 MTAP null cells and 0.622 µM in the test with HCT116 WT cells.

Take `CC(C)N(Cc1ccc(C(F)(F)F)cn1)C(=O)c1cc2c(cn1)nc(N)c1ncncc12` [Example 760, 5-amino-N-(2-propanyl)-N-((5-(trifluoromethyl)-2-pyridinyl)methyl)pyrimido[4,5-c][1,7]naphthyridine-9-carboxamide]: the IC50 in the test with HCT116 MTAP null cells is 0.743 µM; with HCT116 WT cells, 6.1 µM.

As to `C[C@@H](c1ncccn1)N(Cc1ccc(C#N)cn1)C(=O)c1ccc2nc(N)c3c(c2c1)COC3` [Example 666, 4-amino-N-((5-cyano-2-pyridinyl)methyl)-N-((1S)-1-(2-pyrimidinyl)ethyl)-1,3-dihydrofuro[3,4-c]quinoline-8-carboxamide], the IC50 with HCT116 MTAP null cells was 0.687 µM; in the test with HCT116 WT cells it was greater than 10 µM.

Consider `Cn1cc(N(Cc2ccc(C(F)(F)F)nn2)C(=O)c2cc3c4c(c(N)nc3cc2Cl)COC4)cn1` [Example 751, 4-amino-7-chloro-N-(1-methyl-1H-pyrazol-4-yl)-N-((6-(trifluoromethyl)-3-pyridazinyl)methyl)-1,3-dihydrofuro[3,4-c]quinoline-8-carboxamide], for which the half-maximal inhibitory concentration (IC50) with HCT116 MTAP null cells turned out to be 0.017 µM; in the test with HCT116 WT cells, 0.337 µM.

Turning to `Nc1nc2cc(Cl)c(C(=O)N(Cc3ccc(C(F)(F)F)nn3)C3CC3)cc2c2c1COC2` [Example 490, 4-amino-7-chloro-N-cyclopropyl-N-((6-(trifluoromethyl)-3-pyridazinyl)methyl)-1,3-dihydrofuro[3,4-c]quinoline-8-carboxamide], the IC50 turned out to be 0.087 µM with HCT116 MTAP null cells and 3.48 µM in the test on HCT116 WT cells.

On to `C[C@H](c1ncccn1)N(Cc1ccc(Cl)nn1)C(=O)c1ccc2nc(N)c3c(c2c1)COC3` [Example 676, 4-amino-N-((6-chloro-3-pyridazinyl)methyl)-N-((1R)-1-(2-pyrimidinyl)ethyl)-1,3-dihydrofuro[3,4-c]quinoline-8-carboxamide], for which the IC50 with HCT116 MTAP null cells was 0.012 µM; in the test with HCT116 WT cells it was 0.316 µM.

With `C[C@H](c1ncc(C(F)(F)F)cc1F)N(C)C(=O)c1cc2c(cc1F)nc(N)c1c2cnn1C` (single isomer, unassigned) [Example 865], the figures for the IC50 with HCT116 MTAP null cells and with HCT116 WT cells were 0.059 µM and 2.81 µM, respectively.

Take `CC1OCc2c1c(N)nc1ccc(C(=O)N(Cc3ccc(C(F)(F)F)cn3)C3CC3(C)C)cc21` (stereo not shown) [Example 908, 4-amino-N-(2,2-dimethylcyclopropyl)-3-methyl-N-((5-(trifluoromethyl)pyridin-2-yl)methyl)-1,3-dihydrofuro[3,4-c]quinoline-8-carboxamide]: the values for the IC50 with HCT116 MTAP null cells and with HCT116 WT cells were 0.123 µM and 6.2 µM, respectively.

For `C[C@H]1OCc2c1c(N)nc1ccc(C(=O)N(Cc3ccc(C(F)(F)F)cn3)CC3CC3)cc21` [Example 334, (3R)-4-amino-N-(cyclopropylmethyl)-3-methyl-N-((5-(trifluoromethyl)-2-pyridinyl)methyl)-1,3-dihydrofuro[3,4-c]quinoline-8-carboxamide], the IC50 with HCT116 MTAP null cells turned out to be 0.01 µM; in the test on HCT116 WT cells, 0.509 µM.

Regarding `C[C@@H](c1ccc(C(F)(F)F)cc1)N(C)C(=O)c1cc2c(cn1)nc(N)c1cnn(C)c12` (single isomer, unassigned) [Example 599], the IC50 in the test on HCT116 MTAP null cells amounted to 0.536 µM; in the test with HCT116 WT cells, 27.2 µM.

Consider `Cn1cc(N(Cc2ccc(C(F)(F)F)cn2)C(=O)c2cc3c(cc2F)nc(N)c2cnn(C)c23)cn1` [Example 740, 4-amino-7-fluoro-1-methyl-N-(1-methyl-1H-pyrazol-4-yl)-N-((5-(trifluoromethyl)-2-pyridinyl)methyl)-1H-pyrazolo[4,3-c]quinoline-8-carboxamide], for which the IC50 with HCT116 MTAP null cells came out at 0.005 µM; with HCT116 WT cells, 0.1 µM.

For the compound `CN(Cc1ccc(C#N)cn1)C(=O)c1cc2c3c(c(N)nc2cc1Cl)COC3` [Example 472, 4-amino-7-chloro-N-((5-cyano-2-pyridinyl)methyl)-N-methyl-1,3-dihydrofuro[3,4-c]quinoline-8-carboxamide], the IC50 in the test with HCT116 MTAP null cells was 0.267 µM; in the test with HCT116 WT cells it was 14.9 µM.

As for `CC(C)N(Cc1ccc(C2CC2)cn1)C(=O)c1cc2c3c(c(N)nc2cn1)[C@H](C)OC3` [Example 407, (3S)-4-amino-N-((5-cyclopropyl-2-pyridinyl)methyl)-3-methyl-N-(2-propanyl)-1,3-dihydrofuro[3,4-c][1,7]naphthyridine-8-carboxamide], the IC50 in the test with HCT116 MTAP null cells was 3.66 µM; in the test on HCT116 WT cells, greater than 10 µM.

As to `CC(C)N(Cc1ccc(C(F)(F)F)cn1)C(=O)c1cc2c3c(c(N)nc2cc1Cl)COC3` [Example 484, 4-amino-7-chloro-N-(2-propanyl)-N-((5-(trifluoromethyl)-2-pyridinyl)methyl)-1,3-dihydrofuro[3,4-c]quinoline-8-carboxamide], the IC50 with HCT116 MTAP null cells is 0.02 µM; with HCT116 WT cells, 0.402 µM.

In the case of `CCN(Cc1ccc(C(F)(F)F)nn1)C(=O)c1cc2c(cn1)nc(N)c1cnn(C)c12` [Example 550, 4-amino-N-ethyl-1-methyl-N-((6-(trifluoromethyl)-3-pyridazinyl)methyl)-1H-pyrazolo [4,3-c][1,7]naphthyridine-8-carboxamide], the IC50 was determined as 0.066 µM in the test on HCT116 MTAP null cells and 1.8 µM in the test on HCT116 WT cells.

For the compound `C[C@H]1OCc2c1c(N)nc1ccc(C(=O)N(Cc3ccc(C(F)(F)F)cn3)C3CC3)cc21` [Example 351, (3R)-4-amino-N-cyclopropyl-3-methyl-N-((5-(trifluoromethyl)-2-pyridinyl)methyl)-1,3-dihydrofuro[3,4-c]quinoline-8-carboxamide], the IC50 with HCT116 MTAP null cells turned out to be 0.048 µM; with HCT116 WT cells it was 3.51 µM.

As to `CCN(Cc1ccc(Br)nn1)C(=O)c1cc2c3c(c(N)nc2cn1)COC3` [Example 710, 4-amino-N-((6-bromo-3-pyridazinyl)methyl)-N-ethyl-1,3-dihydrofuro[3,4-c][1,7]naphthyridine-8-carboxamide], the IC50 in the test on HCT116 MTAP null cells is 0.484 µM; with HCT116 WT cells it was greater than 10 µM.

Consider `Nc1nc2ccc(C(=O)N(Cc3ccc(C(F)(F)F)nn3)C3CC3)cc2c2c1COC2` [Example 661, 4-amino-N-cyclopropyl-N-((6-(trifluoromethyl)-3-pyridazinyl)methyl)-1,3-dihydrofuro[3,4-c]quinoline-8-carboxamide], for which the IC50 was determined as 0.303 µM with HCT116 MTAP null cells and 26.2 µM in the test on HCT116 WT cells.

With `CCN(C(=O)c1ccc2nc(N)c3c(c2c1)COC3)C(C)c1ccc(Cl)nc1` (racemic) [Example 727, 4-amino-N-((1R)-1-(6-chloro-3-pyridinyl)ethyl)-N-ethyl-1,3-dihydrofuro[3,4-c]quinoline-8-carboxamide and 4-amino-N-((1S)-1-(6-chloro-3-pyridinyl)ethyl)-N-ethyl-1,3-dihydrofuro[3,4-c]quinoline-8-carboxamide], the IC50 came out at 0.279 µM in the test with HCT116 MTAP null cells and 12.3 µM with HCT116 WT cells.

Regarding `Nc1nc2cc(F)c(C(=O)N(Cc3ccc(C(F)(F)F)cn3)C3CC3)cc2c2c1COC2` [Example 369, 4-amino-N-cyclopropyl-7-fluoro-N-((5-(trifluoromethyl)-2-pyridinyl)methyl)-1,3-dihydrofuro[3,4-c]quinoline-8-carboxamide], the IC50 is 0.124 µM in the test with HCT116 MTAP null cells and 5.04 µM in the test on HCT116 WT cells.

`CC1OCc2c1c(N)nc1ccc(C(=O)N(Cc3ccc(C(F)(F)F)cn3)[C@H]3[C@@H]4COC[C@@H]43)cc21` (stereo partly drawn) [Example 900, 4-amino-N-((1R,5S,6r)-3-oxabicyclo[3.1.0]hexan-6-yl)-3-methyl-N-((5-(trifluoromethyl)pyridin-2-yl)methyl)-1,3-dihydrofuro[3,4-c]quinoline-8-carboxamide]: the values for the IC50 with HCT116 MTAP null cells and in the test with HCT116 WT cells were 0.29 µM and greater than 10 µM, respectively.

For the compound `CCN(C(=O)c1cc2c3c(c(N)nc2cn1)COC3)[C@@H](c1ccc(C(F)(F)F)nn1)C1CC1` [Example 767, 4-amino-N-((R)-cyclopropyl(6-(trifluoromethyl)-3-pyridazinyl)methyl)-N-ethyl-1,3-dihydrofuro[3,4-c][1,7]naphthyridine-8-carboxamide], the IC50 in the test with HCT116 MTAP null cells was 2.27 µM; with HCT116 WT cells, greater than 50 µM.

The term IC50 denotes the concentration needed to halve the response being measured.
